Experimental data from US11851426B2, “Bicyclic amines as CDK2 inhibitors” (Incyte Corporation, priority 2019, dated 2023).

Biological target: CDK2/Cyclin E1 (Homo sapiens (Human), UniProt P24941)
Assay: CDK2/Cyclin E1 HTRF enzyme activity assay
Assay type: biochemical
Details: 1 mM ATP; CDK2/Cyclin E1 0.25 nM; 60 minutes at room temperature
Method in brief: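 Full-length GST-CDK2 co-expressed with FLAG-Cyclin E1 (baculovirus), 0.25 nM, reacted with 50 nM ULight-4E-BP1 (Thr37/46) peptide at 50 μM or 1 mM ATP in HEPES pH 7.5 buffer, 60 min, room temperature. EDTA plus Eu-anti-phospho-4E-BP1 antibody stopped the reaction; HTRF read after 1 h; IC50 from three- or four-parameter fits.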

Row | IC50 | Structure (SMILES)
1 | ≤ 0.02 µM | C[C@H]1CCCN1c1c(-c2cn[nH]c2)ncc2nc(NC3CCN(S(C)(=O)=O)CC3)nn12 [Example 133, (S)-5-(2-Methylpyrrolidin-1-yl)-N-(1-(methylsulfonyl)piperidin-4-yl)-6-(1H-pyrazol-4-yl)-[1,2,4]triazolo[1,5-a]pyrazin-2-amine]
2 | ≤ 0.02 µM | CS(=O)(=O)N1CCC(Nc2nc3c(OCC4CC4)c(-c4cn[nH]c4)ccn3n2)CC1 [Example 4, 8-(cyclopropylmethoxy)-N-(1-(methylsulfonyl)piperidin-4-yl)-7-(1H-pyrazol-4-yl)-[1,2,4]triazolo[1,5-a]pyridin-2-amine]
3 | ≤ 0.02 µM | C[C@@H]1CN(S(C)(=O)=O)CC[C@@H]1Nc1nc2cnc(-c3cn[nH]c3)c(OCC3(C(F)(F)F)CCC3)n2n1 [Example 114, N-((3R,4S)-3-Methyl-1-(methylsulfonyl)piperidin-4-yl)-6-(1H-pyrazol-4-yl)-5-((1-(trifluoromethyl)cyclobutyl)methoxy)-[1,2,4]triazolo[1,5-a]pyrazin-2-amine]
4 | ≤ 0.02 µM | CC1COCCC1Oc1c(-c2cn[nH]c2)ncc2nc(N[C@H]3CCN(S(C)(=O)=O)C[C@H]3C)nn12 (stereo partly drawn) [Example 111, N-((3R,4S)-3-Methyl-1-(methylsulfonyl)piperidin-4-yl)-5-((3-methyltetrahydro-2H-pyran-4-yl)oxy)-6-(1H-pyrazol-4-yl)-[1,2,4]triazolo[1,5-a]pyrazin-2-amine]
5 | ≤ 0.02 µM | C[C@@H]1CN(S(C)(=O)=O)CC[C@@H]1Nc1nc2ccc(-c3cn[nH]c3)c(OCC3CCCC3)n2n1 [Example 77, 5-(Cyclopentylmethoxy)-N-((3R,4S)-3-methyl-1-(methylsulfonyl)piperidin-4-yl)-6-(1H-pyrazol-4-yl)-[1,2,4]triazolo[1,5-a]pyridin-2-amine]
6 | ≤ 0.02 µM | C[C@@H]1CN(S(C)(=O)=O)CC[C@@H]1Nc1nc2c(OC3CCC(F)(F)CC3)c(-c3cn[nH]c3)ccn2n1 [Example 39, 8-((4,4-difluorocyclohexyl)oxy)-N-((3R,4S)-3-methyl-1-(methylsulfonyl)piperidin-4-yl)-7-(1H-pyrazol-4-yl)-[1,2,4]triazolo[1,5-a]pyridin-2-amine]
7 | ≤ 0.02 µM | [2H]C([2H])([2H])C([2H])(Oc1c(-c2cn[nH]c2)ncc2nc(N[C@H]3CCN(S(C)(=O)=O)C[C@H]3C)nn12)C([2H])([2H])[2H] [Example 139, N-((3R,4S)-3-Methyl-1-(methylsulfonyl)piperidin-4-yl)-5-((propan-2-yl-d7)oxy)-6-(1H-pyrazol-4-yl)-[1,2,4]triazolo[1,5-a]pyrazin-2-amine]
8 | ≤ 0.02 µM | CS(=O)(=O)N1CCC(Nc2nc3cnc(-c4cn[nH]c4)c(N4CCC(F)(F)C4)n3n2)CC1 [Example 130, 5-(3,3-Difluoropyrrolidin-1-yl)-N-(1-(methylsulfonyl)piperidin-4-yl)-6-(1H-pyrazol-4-yl)-[1,2,4]triazolo[1,5-a]pyrazin-2-amine]
